Results from patent US11466020B2, “Compounds and compositions for inhibition and elimination of Zika infection and uses for same” (Cornell University, priority 2017, dated 2022).
Structures can show the parent of a compound that is named as a salt.

What was measured:
ZIKV (MR766 strain) [1] = experiment: Therapeutic treatment of ZIKV (MR766 strain) infected SCID-beige mice; format: in vivo; conditions: HH 100 mg/kg/day subcutaneously for 5 days from day 5 post-infection
Method: (A) Scheme of prophylactic treatment of HH in vivo. HH was administrated to SCID-Beige mice 12 h before infection with MR766 virus strain. HH was injected at a dose of 100 mg/kg/day subcutaneously and euthanized at day 7. (B) qRT-PCR analysis of total ZIKV vRNA in liver, spleen, kidney and brain of ZIKV infected mice. n=12 for liver, spleen and kidney and 20 for brain. (C) qRT-PCR analysis of total ZIKV vRNA in brains of ZIKV-infected mice treated with vehicle (n=14) or HH (n=8). […] (D-F) Immunohistochemical analysis of adult cortex. […] HH prevents infection in all cortical cells. Scale bar=100 μm in (D) and 10 μm in (E, F). (G-I) Immunohistochemical analysis of adult hippocampus. […] HH inhibits infection of all cells in the hippocampus. […] The mice were then euthanized and RNA from brains was analyzed using qRT-PCR. […] The mice were euthanized after 7 days treatment and RNA from brains was analyzed using qRT-PCR. (W, X) qRT-PCR analysis of total vRNA (W) and (−) strand RNA (X) in the brains of mice treated with vehicle (n=8) or HH (n=11) at day 7 post-infection. p values were calculated by one-way repeated measures ANOVA or two-way repeated measures ANOVA with a Bonferroni test for multiple comparisons. *p<0.05, **p<0.01 and ***p<0.001.
To evaluate the therapeutic potential of HH, we first monitored the kinetics of ZIKV infection (MR766 strain) in the adult mouse brain. […]

ZIKV (MR766 strain) [2] = experiment: qRT-PCR of total and (-) strand vRNA in hNPCs treated 24-48 h post-infection (MR766); format: cell-based, Zika virus
Method: To further evaluate the therapeutic potential of HH, qRT-PCR analysis was performed to monitor the dynamics of ZIKV vRNA expression (MR766 strain) in hNPCs. Both total and replicating (−) strand of ZIKV vRNAs could be detected at 24 h post-infection, and the vRNA level kept increasing at 36 h and 48 h post-infection (FIG. 2J). […] In addition, to determine the effect of HH on hNPCs derived from different donors, 25 μM HH or DMSO control was added to the hNPCs derived from either of two additional donors at 24 h post-infection. […] Moreover, we evaluated the dynamics of ZIKV vRNA expression (FSS13025 strain) in hNPCs.
To monitor ZIKV dynamics in hNPCs, hNPCs were infected with ZIKV (MR766 strain, MOI=0.125, FSS13025 strain MOI=0.1) for 2 h, and changed to virus-free medium. The cells were maintained in NPC medium with daily medium change. The cells were lysed at the different time points and analyzed using qRT-PCR.
RNA Extraction and qRT-PCR. Total RNA of cultured cells and organs was extracted with RNeasy plus mini kit (Qiagen). vRNA from cell culture supernatant or mouse serum was extracted with QIAampe viral RNA mini kit (Qiagen). […] ZIKV vRNA levels were calculated using a standard curve generated using serial 10-fold dilutions of ZIKV vRNA.

## CN1CCC2=C[C@H](O)[C@H]3OC(=O)c4cc5c(cc4[C@H]3[C@@H]21)OCO5 [HH, hippeastrine hydrobromide]
ZIKV (MR766 strain) [1]
  total and replicating (-) vRNA levels in brain: significantly decreased
ZIKV (MR766 strain) [2]; 25 μM added at 24 h, 36 h or 48 h post-infection, additional 3 days
  total and replicating (-) ZIKV vRNA levels in hNPCs: successfully suppressed
ZIKV (MR766 strain) [2]; 25 μM added at 24 h post-infection
  total and replicating (-) strand ZIKV vRNAs in hNPCs from two additional donors: consistently suppressed
